Columns and labels:
[1] = system: NCI-H322M (non-small cell lung cancer); test: NCI-60 SRB cytotoxicity screen; type: cell-based; settings: Homo sapiens, single dose 10 μM, read-out: growth inhibition (GI%)
M14 (melanoma) = test: NCI-60 SRB cytotoxicity screen; type: cell-based; settings: Homo sapiens; M14, single dose 10 μM; read-out: growth inhibition (GI%)
KM12 (colon cancer) = test: NCI-60 SRB cytotoxicity screen; type: cell-based; settings: Homo sapiens; KM12, single dose 10 μM; read-out: growth inhibition (GI%)
[2] = system: HOP-62 (non-small cell lung cancer); test: NCI-60 SRB cytotoxicity screen; type: cell-based; settings: Homo sapiens; HOP-62, single dose 10 μM; read-out: growth inhibition (GI%)
OVCAR-8 (ovarian cancer) = test: NCI-60 SRB cytotoxicity screen; type: cell-based; settings: Homo sapiens; OVCAR-8, single dose 10 μM; read-out: growth inhibition (GI%)
A498 (renal cancer) = test: NCI-60 SRB cytotoxicity screen; type: cell-based; settings: Homo sapiens; A498, single dose 10 μM; read-out: growth inhibition (GI%)
PC-3 (prostate cancer) = test: NCI-60 SRB cytotoxicity screen; type: cell-based; settings: PC-3, single dose 10 μM; read-out: growth inhibition (GI%)
[3] = system: NCI-H460 (non-small cell lung cancer); test: NCI-60 SRB cytotoxicity screen; type: cell-based; settings: Homo sapiens; NCI-H460, single dose 10 μM; read-out: growth inhibition (GI%)
MDA-MB-435 (melanoma) = test: NCI-60 SRB cytotoxicity screen; type: cell-based; settings: Homo sapiens, MDA-MB-435, read-out: growth inhibition (GI%)
[4] = system: NCI-H522 (non-small cell lung cancer); test: NCI-60 SRB cytotoxicity screen; type: cell-based; settings: Homo sapiens; NCI-H522, single dose 10 μM; read-out: growth inhibition (GI%)
LOX IMVI (melanoma) = test: NCI-60 SRB cytotoxicity screen; type: cell-based; settings: Homo sapiens, single dose 10 μM, read-out: growth inhibition (GI%)
[5] = system: A549/ATCC (non-small cell lung cancer); test: NCI-60 SRB cytotoxicity screen; type: cell-based; settings: Homo sapiens, single dose 10 μM, read-out: growth inhibition (GI%)
SK-MEL-5 (melanoma) = test: NCI-60 SRB cytotoxicity screen; type: cell-based; settings: Homo sapiens; SK-MEL-5, single dose 10 μM; read-out: growth inhibition (GI%)
[6] = system: NCI-H226 (non-small cell lung cancer); test: NCI-60 SRB cytotoxicity screen; type: cell-based; settings: NCI-H226, single dose 10 μM; for inhibition at 10 µM: Homo sapiens, read-out: growth inhibition (GI%)
SNB-75 (CNS cancer) = test: NCI-60 SRB cytotoxicity screen; type: cell-based; settings: Homo sapiens, SNB-75, SNB-75, single dose 10 μM; read-out: growth inhibition (GI%)
DU-145 (prostate cancer) = test: NCI-60 SRB cytotoxicity screen; type: cell-based; settings: Homo sapiens; DU-145, single dose 10 μM; read-out: growth inhibition (GI%)
RPMI-8226 (leukemia) = test: NCI-60 SRB cytotoxicity screen; type: cell-based; settings: Homo sapiens; RPMI-8226, single dose 10 μM; read-out: growth inhibition (GI%)
HCC-2998 (colon cancer) = test: NCI-60 SRB cytotoxicity screen; type: cell-based; settings: Homo sapiens; HCC-2998, single dose 10 μM; read-out: growth inhibition (GI%)
[7] = system: HOP-92 (non-small cell lung cancer); test: NCI-60 SRB cytotoxicity screen; type: cell-based; settings: Homo sapiens; HOP-92, single dose 10 μM; read-out: growth inhibition (GI%)
CAKI-1 (renal cancer) = test: NCI-60 SRB cytotoxicity screen; type: cell-based; settings: Homo sapiens; CAKI-1, single dose 10 μM; read-out: growth inhibition (GI%)
786-0 (renal cancer) = test: NCI-60 SRB cytotoxicity screen; type: cell-based; settings: Homo sapiens; 786-0, single dose 10 μM; read-out: growth inhibition (GI%)
COLO 205 (colon cancer) = test: NCI-60 SRB cytotoxicity screen; type: cell-based; settings: Homo sapiens; COLO 205, single dose 10 μM; read-out: growth inhibition (GI%)
K-562 (leukemia) = test: NCI-60 SRB cytotoxicity screen; type: cell-based; settings: Homo sapiens; K-652 [sic], single dose 10 μM; read-out: growth inhibition (GI%)
UO-31 (renal cancer) = test: NCI-60 SRB cytotoxicity screen; type: cell-based; settings: Homo sapiens; UO-31, single dose 10 μM; read-out: growth inhibition (GI%)
UACC-62 (melanoma) = test: NCI-60 SRB cytotoxicity screen; type: cell-based; settings: Homo sapiens; UACC-62, single dose 10 μM; read-out: growth inhibition (GI%)
SK-MEL-2 (melanoma) = test: NCI-60 SRB cytotoxicity screen; type: cell-based; settings: Homo sapiens; SK-MEL-2, single dose 10 μM; read-out: growth inhibition (GI%)
HL-60(TB) (leukemia) = test: NCI-60 SRB cytotoxicity screen; type: cell-based; settings: Homo sapiens, single dose 10 μM, read-out: growth inhibition (GI%)
ACHN (renal cancer) = test: NCI-60 SRB cytotoxicity screen; type: cell-based; settings: Homo sapiens, single dose 10 μM, read-out: growth inhibition (GI%)
SN12C (renal cancer) = test: NCI-60 SRB cytotoxicity screen; type: cell-based; settings: Homo sapiens, single dose 10 μM, read-out: growth inhibition (GI%)
U251 (CNS cancer) = test: NCI-60 SRB cytotoxicity screen; type: cell-based; settings: Homo sapiens, U-251; U251, single dose 10 μM; read-out: growth inhibition (GI%)
SK-MEL-28 (melanoma) = test: NCI-60 SRB cytotoxicity screen; type: cell-based; settings: Homo sapiens; SK-MEL-28, single dose 10 μM; read-out: growth inhibition (GI%)
TK-10 (renal cancer) = test: NCI-60 SRB cytotoxicity screen; type: cell-based; settings: Homo sapiens; TK-10, single dose 10 μM; read-out: growth inhibition (GI%)
HCT-116 (colon cancer) = test: NCI-60 SRB cytotoxicity screen; type: cell-based; settings: Homo sapiens; HCT-116, single dose 10 μM; read-out: growth inhibition (GI%)
HS 578T (breast cancer) = test: NCI-60 SRB cytotoxicity screen; type: cell-based; settings: Homo sapiens, single dose 10 μM, read-out: growth inhibition (GI%)
[8] = system: NCI-H23 (non-small cell lung cancer); test: NCI-60 SRB cytotoxicity screen; type: cell-based; settings: Homo sapiens; NCI-H23, single dose 10 μM; read-out: growth inhibition (GI%)

Row | SMILES | inhibition at 10 µM [1] [%] | inhibition at 10 µM (M14 (melanoma)) [%] | inhibition at 10 µM (KM12 (colon cancer)) [%] | inhibition at 10 µM [2] [%] | inhibition at 10 µM (OVCAR-8 (ovarian cancer)) [%] | inhibition at 10 µM (A498 (renal cancer)) [%] | melting point [°C] | inhibition at 10 µM (PC-3 (prostate cancer)) [%] | inhibition at 10 µM [3] [%] | inhibition at 10 µM (MDA-MB-435 (melanoma)) [%] | inhibition at 10 µM [4] [%] | inhibition at 10 µM (LOX IMVI (melanoma)) [%] | inhibition at 10 µM [5] [%] | inhibition at 10 µM (SK-MEL-5 (melanoma)) [%] | inhibition at 10 µM [6] [%] | inhibition at 10 µM (SNB-75 (CNS cancer)) [%] | inhibition at 10 µM (DU-145 (prostate cancer)) [%] | inhibition at 10 µM (RPMI-8226 (leukemia)) [%] | inhibition at 10 µM (HCC-2998 (colon cancer)) [%] | inhibition at 10 µM [7] [%] | also measured
1 | CCc1cccc2cc(C=CC(=O)c3ccc(OC)cc3)c(Cl)nc12 [Compound 3a, 3-(2-Chloro-8-ethylquinolin-3-yl)-1-(4-methoxyphenyl)prop-2-en-1-one] | < 10 | < 10 | < 10 | < 10 | < 10 | < 10 | 138 to 140 | < 10 | < 10 | < 10 | 21.1 | 11.3 | < 10 | < 10 | 79.9 | < 10 | < 10 | 22.1 | < 10 | 27.3 | inhibition at 10 µM (CAKI-1 (renal cancer)): 19.3%; inhibition at 10 µM (786-0 (renal cancer)): < 10%; inhibition at 10 µM (COLO 205 (colon cancer)): < 10%; inhibition at 10 µM (K-562 (leukemia)): < 10%; inhibition at 10 µM (UO-31 (renal cancer)): < 10%; inhibition at 10 µM (UACC-62 (melanoma)): 17.1%; inhibition at 10 µM (SK-MEL-2 (melanoma)): < 10%; inhibition at 10 µM (HL-60(TB) (leukemia)): 45.8%; inhibition at 10 µM (ACHN (renal cancer)): < 10%; inhibition at 10 µM (SN12C (renal cancer)): < 10%; inhibition at 10 µM (U251 (CNS cancer)): 17.9%; inhibition at 10 µM (SK-MEL-28 (melanoma)): < 10%; inhibition at 10 µM (TK-10 (renal cancer)): < 10%; inhibition at 10 µM (HCT-116 (colon cancer)): < 10%; inhibition at 10 µM (HS 578T (breast cancer)): < 10%; inhibition at 10 µM [8]: < 10%
2 | CCc1cccc2cc(C=CC(=O)c3ccc(OC)c(OC)c3)c(Cl)nc12 [Compound 3b, 3-(2-Chloro-8-ethylquinolin-3-yl)-1-(3,4-dimethoxyphenyl)prop-2-en-1-one] | 22.4 | < 10 | 23.5 | < 10 | 57.8 | < 10 | 135 to 137 | 32 | 27.7 | 17.1 | 41.5 | 43.4 | 43.5 | 23.2 | > 100 | > 100 | 15.8 | 56.2 | 17.7 | 27.4 | growth inhibition (GI%) [6]: lethal effect; inhibition at 10 µM (CAKI-1 (renal cancer)): 40.2%; inhibition at 10 µM (786-0 (renal cancer)): 25.7%; inhibition at 10 µM (COLO 205 (colon cancer)): 22.4%; inhibition at 10 µM (K-562 (leukemia)): 55.7%; inhibition at 10 µM (UO-31 (renal cancer)): 41.8%; inhibition at 10 µM (UACC-62 (melanoma)): 35.9%; inhibition at 10 µM (SK-MEL-2 (melanoma)): < 10%; inhibition at 10 µM (HL-60(TB) (leukemia)): 61%; inhibition at 10 µM (ACHN (renal cancer)): 24.5%; inhibition at 10 µM (SN12C (renal cancer)): 23.7%; inhibition at 10 µM (U251 (CNS cancer)): 65.2%; inhibition at 10 µM (SK-MEL-28 (melanoma)): < 10%; inhibition at 10 µM (TK-10 (renal cancer)): < 10%; inhibition at 10 µM (HCT-116 (colon cancer)): 62.8%; inhibition at 10 µM (HS 578T (breast cancer)): < 10%; inhibition at 10 µM [8]: 20.2%
3 | CCc1cccc2cc(C=CC(=O)c3cc(OC)c(OC)c(OC)c3)c(Cl)nc12 [Compound 3c, 3-(2-Chloro-8-ethylquinolin-3-yl)-1-(3,4,5-trimethoxyphenyl)prop-2-en-1-one] | 31.1 | 31.9 | 80.7 | < 10 | 84 | < 10 | 140 to 142 | 53.5 | 18.4 | 59.2 | 80.7 | 72 | 52.1 | 39.9 | > 100 | 61.7 | 29 | 78.2 | 63.8 | 26.8 | inhibition at 10 µM (CAKI-1 (renal cancer)): 38.7%; inhibition at 10 µM (786-0 (renal cancer)): 41.7%; inhibition at 10 µM (COLO 205 (colon cancer)): 18.4%; inhibition at 10 µM (K-562 (leukemia)): 68.1%; inhibition at 10 µM (UO-31 (renal cancer)): 45%; inhibition at 10 µM (UACC-62 (melanoma)): 41.9%; inhibition at 10 µM (SK-MEL-2 (melanoma)): 44.5%; inhibition at 10 µM (HL-60(TB) (leukemia)): 73.5%; inhibition at 10 µM (ACHN (renal cancer)): 32%; inhibition at 10 µM (SN12C (renal cancer)): 42.3%; inhibition at 10 µM (U251 (CNS cancer)): 78.2%; inhibition at 10 µM (SK-MEL-28 (melanoma)): 15%; inhibition at 10 µM (TK-10 (renal cancer)): < 10%; inhibition at 10 µM (HCT-116 (colon cancer)): 61.6%; inhibition at 10 µM (HS 578T (breast cancer)): < 10%; inhibition at 10 µM [8]: 27.4%
4 | CCc1cccc2cc(C=CC(=O)c3ccc(F)cc3)c(Cl)nc12 [Compound 3d, 3-(2-Chloro-8-ethylquinolin-3-yl)-1-(4-fluorophenyl)prop-2-en-1-one] | < 10 | < 10 | < 10 | < 10 | < 10 | < 10 | 215 to 217 | < 10 | < 10 | < 10 | < 10 | < 10 | < 10 | < 10 | < 10 | < 10 | < 10 | < 10 | < 10 | < 10 | inhibition at 10 µM (CAKI-1 (renal cancer)): 11.8%; inhibition at 10 µM (786-0 (renal cancer)): < 10%; inhibition at 10 µM (COLO 205 (colon cancer)): < 10%; inhibition at 10 µM (K-562 (leukemia)): < 10%; inhibition at 10 µM (UO-31 (renal cancer)): < 10%; inhibition at 10 µM (UACC-62 (melanoma)): < 10%; inhibition at 10 µM (SK-MEL-2 (melanoma)): < 10%; inhibition at 10 µM (HL-60(TB) (leukemia)): < 10%; inhibition at 10 µM (ACHN (renal cancer)): < 10%; inhibition at 10 µM (SN12C (renal cancer)): < 10%; inhibition at 10 µM (U251 (CNS cancer)): < 10%; inhibition at 10 µM (SK-MEL-28 (melanoma)): < 10%; inhibition at 10 µM (TK-10 (renal cancer)): < 10%; inhibition at 10 µM (HCT-116 (colon cancer)): < 10%; inhibition at 10 µM (HS 578T (breast cancer)): < 10%; inhibition at 10 µM [8]: < 10%

Reference: paper PMC11240139, “Exploring the antitumor potential of novel quinoline derivatives via tubulin polymerization inhibition in breast cancer; design, synthesis and molecular docking” (RSC Advances, 2024)
